Experiment: Stability in hepatocytes (mouse)
Format: in vitro ADME
Conditions: cryopreserved mouse hepatocytes (suspension)
Method: 10 mM of 1 was provided as a 1000× stock solution in dimethylsulfoxide (DMSO), and the stock solution was diluted to 1 mM with DMSO in 96-well plates. 30 mM of positive compounds (7-ethoxycoumarin and 7-hydroxycoumarin) were provided as a 1000× stock solution in DMSO, and the stock solution was diluted to 3 mM with DMSO in 96-well plates. 20 μL of 1000× stock solution of each compound were pipetted and was mixed with 380 μL of 45% MeOH/H2O to obtain 50 μM of 1 and 150 μM of the positive control compound solutions to form 50× intermediate solutions. 20 μL of 50× intermediate solution of each compound were pipetted and was mixed with […] of pre-warmed incubation medium to obtain 5 μM of 1 and 15 μM of the positive control compound solutions to form 5× working solutions. The incubation medium was Williams' Medium E (no phenol red) containing 2 mM L-glutamine and 25 mM HEPES. 10 μL of 5× working solutions of each compound were pipetted into appropriate wells in a 96-well plate for time points of 0 minutes, 15 minutes, 30 minutes, 60 minutes, and 90 minutes in duplicates. The plates with compounds were kept warm in an incubator at 37° C.
A cell suspension was prepared by thawing cryopreserved cells, isolating the cells, and suspending the cells in thawing medium. […]
The remaining percentage of 1 after incubation was calculated according to the following equation. […]

half-life at 1 µM: > 3.61 h
Structure (SMILES): C[C@H](CC/C=C/C(=O)O)O[C@@H]1O[C@@H](C)[C@H](O)C[C@H]1O [ascr #7, reference compound]
